Data: patent publication US20250041312A1, “METHODS OF ADMINISTERING A MODULATOR OF HEMOGLOBIN” (Global Blood Therapeutics, Inc., priority 2021, published 2025)
Like-named read-outs stand apart in the source and are kept apart here.

Assay: SAD study in healthy volunteers: PK in plasma, whole blood, red blood cells
Assay type: in vivo, human
Conditions: for Cmax / AUC(0-t) / half-life / Kp / blood plasma ratio: human; for Kp: red blood cells and plasma; for Kp / blood plasma ratio: HV, dose range of 50 to 2200 mg; for blood plasma ratio: whole blood and plasma
Experimental: To evaluate the safety and tolerability of single ascending doses of Compound I, 48 healthy volunteers (42 in the fasted state and 6 in the fed state) aged 18 to 55 years old were administered single ascending doses (50 mg to 2200 mg) of Compound I, while 16 healthy volunteers (14 in the fasted state and 2 in the fed state) aged 18 to 55 years old were administered placebo in a double blind, randomized, sequential manner.
Whole blood pharmacokinetic (PK) parameters, using actual sample collection times, and hemoglobin occupancy after single ascending dose are shown in Table 5 (containing data from both healthy volunteers and SCD subjects) and Table 6 (containing data from only healthy volunteer subjects).

B:P ratio (mean AUC0-t blood:mean AUC0-t plasma) (HV single 50 mg): 220 | B:P ratio (mean AUC0-t blood:mean AUC0-t plasma) (HV single 100 mg): 214 | B:P ratio (mean AUC0-t blood:mean AUC0-t plasma) (HV single 200 mg): 206 | B:P ratio (mean AUC0-t blood:mean AUC0-t plasma) (HV single 400 mg): 185 | B:P ratio AUC0-inf (healthy subjects n=6, single 100 mg): 216 | Cmax (plasma, 100 mg, healthy volunteers n=6, single 100 mg, geometric mean): 714 ng/mL | AUC(0-t) (plasma, 100 mg, healthy volunteers n=6, single 100 mg, plasma, geometric mean, read-out: AUC0-t): 68.7 µg·h/mL | half-life (plasma, 100 mg, healthy volunteers n=6, single 100 mg, plasma, geometric mean, read-out: t½ (converted)): 25.6 days | Cmax (plasma, po, 50 mg, HV single oral 50 mg (Cohort 1), geometric mean): 400 ng/mL | AUC(0-t) (plasma, po, 50 mg, HV single oral 50 mg (Cohort 1), plasma, geometric mean, read-out: AUClast): 31.1 µg·h/mL | half-life (plasma, po, 50 mg, HV single oral 50 mg (Cohort 1), plasma, geometric mean, read-out: t1/2 (converted)): 28.7 days | Cmax (plasma, po, 100 mg, HV single oral 100 mg (Cohort 2), geometric mean): 714 ng/mL | AUC(0-t) (plasma, po, 100 mg, HV single oral 100 mg (Cohort 2), plasma, geometric mean, read-out: AUClast): 68.7 µg·h/mL | half-life (plasma, po, 100 mg, HV single oral 100 mg (Cohort 2), plasma, geometric mean, read-out: t1/2 (converted)): 25.6 days | Cmax (plasma, po, 200 mg, HV single oral 200 mg (Cohort 3), geometric mean): 1290 ng/mL | AUC(0-t) (plasma, po, 200 mg, HV single oral 200 mg (Cohort 3), plasma, geometric mean, read-out: AUClast): 135 µg·h/mL | half-life (plasma, po, 200 mg, HV single oral 200 mg (Cohort 3), plasma, geometric mean, read-out: t1/2 (converted)): 30.8 days | Cmax (plasma, po, 400 mg, HV single oral 400 mg (Cohort 5), geometric mean): 3190 ng/mL | AUC(0-t) (plasma, po, 400 mg, HV single oral 400 mg (Cohort 5), plasma, geometric mean, read-out: AUClast): 331 µg·h/mL | half-life (plasma, po, 400 mg, HV single oral 400 mg (Cohort 5), plasma, geometric mean, read-out: t1/2 (converted)): 26 days | Cmax (plasma, po, 800 mg, HV single oral 800 mg (Cohort 6), geometric mean): 4250 ng/mL | AUC(0-t) (plasma, po, 800 mg, HV single oral 800 mg (Cohort 6), plasma, geometric mean, read-out: AUClast): 609 µg·h/mL | half-life (plasma, po, 800 mg, HV single oral 800 mg (Cohort 6), plasma, geometric mean, read-out: t1/2 (converted)): 20.7 days | Cmax (plasma, po, 1400 mg, HV single oral 1400 mg (Cohort 7), geometric mean): 7780 ng/mL | AUC(0-t) (plasma, po, 1400 mg, HV single oral 1400 mg (Cohort 7), plasma, geometric mean, read-out: AUClast): 1030 µg·h/mL | half-life (plasma, po, 1400 mg, HV single oral 1400 mg (Cohort 7), plasma, geometric mean, read-out: t1/2 (converted)): 21.4 days | Cmax (plasma, po, 2200 mg, HV single oral 2200 mg (Cohort 8), geometric mean): 9300 ng/mL | AUC(0-t) (plasma, po, 2200 mg, HV single oral 2200 mg (Cohort 8), plasma, geometric mean, read-out: AUClast): 1360 µg·h/mL | half-life (plasma, po, 2200 mg, HV single oral 2200 mg (Cohort 8), plasma, geometric mean, read-out: t1/2 (converted)): 22.1 days | Kp (read-out: mean RBC to plasma ratio for AUCinf): 420 to 530 | Kp (read-out: mean RBC to plasma ratio for Cmax): 49 to 99 | AUC(0-t) (red blood cells, po, 50 mg, HV single oral 50 mg (Cohort 1), red blood cells (calculated conc.), geometric mean, read-out: AUClast): 16500 µg·h/mL | half-life (red blood cells, po, 50 mg, HV single oral 50 mg (Cohort 1), red blood cells (calculated conc.), geometric mean, read-out: t1/2 (converted)): 28.3 days | Cmax (red blood cells, po, 50 mg, HV single oral 50 mg (Cohort 1), red blood cells (conc. calculated from blood, plasma, hematocrit), geometric mean): 19300 ng/mL | Cmax (red blood cells, po, 100 mg, HV single oral 100 mg (Cohort 2), red blood cells (calculated conc.), geometric mean): 41700 ng/mL | AUC(0-t) (red blood cells, po, 100 mg, HV single oral 100 mg (Cohort 2), red blood cells (calculated conc.), geometric mean, read-out: AUClast): 34500 µg·h/mL | half-life (red blood cells, po, 100 mg, HV single oral 100 mg (Cohort 2), red blood cells (calculated conc.), geometric mean, read-out: t1/2 (converted)): 29 days | Cmax (red blood cells, po, 200 mg, HV single oral 200 mg (Cohort 3), red blood cells (calculated conc.), geometric mean): 76900 ng/mL | AUC(0-t) (red blood cells, po, 200 mg, HV single oral 200 mg (Cohort 3), red blood cells (calculated conc.), geometric mean, read-out: AUClast): 64400 µg·h/mL | half-life (red blood cells, po, 200 mg, HV single oral 200 mg (Cohort 3), red blood cells (calculated conc.), geometric mean, read-out: t1/2 (converted)): 28.1 days | Cmax (red blood cells, po, 400 mg, HV single oral 400 mg (Cohort 5), red blood cells (calculated conc.), geometric mean): 210000 ng/mL | AUC(0-t) (red blood cells, po, 400 mg, HV single oral 400 mg (Cohort 5), red blood cells (calculated conc.), geometric mean, read-out: AUClast): 151000 µg·h/mL | half-life (red blood cells, po, 400 mg, HV single oral 400 mg (Cohort 5), red blood cells (calculated conc.), geometric mean, read-out: t1/2 (converted)): 25.2 days | Cmax (red blood cells, po, 800 mg, HV single oral 800 mg (Cohort 6), red blood cells (calculated conc.), geometric mean): 351000 ng/mL | AUC(0-t) (red blood cells, po, 800 mg, HV single oral 800 mg (Cohort 6), red blood cells (calculated conc.), geometric mean, read-out: AUClast): 247000 µg·h/mL | half-life (red blood cells, po, 800 mg, HV single oral 800 mg (Cohort 6), red blood cells (calculated conc.), geometric mean, read-out: t1/2 (converted)): 26 days | Cmax (red blood cells, po, 1400 mg, HV single oral 1400 mg (Cohort 7), red blood cells (calculated conc.), geometric mean): 543000 ng/mL | AUC(0-t) (red blood cells, po, 1400 mg, HV single oral 1400 mg (Cohort 7), red blood cells (calculated conc.), geometric mean, read-out: AUClast): 455000 µg·h/mL | half-life (red blood cells, po, 1400 mg, HV single oral 1400 mg (Cohort 7), red blood cells (calculated conc.), geometric mean, read-out: t1/2 (converted)): 27.4 days | Cmax (red blood cells, po, 2200 mg, HV single oral 2200 mg (Cohort 8), red blood cells (calculated conc.), geometric mean): 910000 ng/mL | AUC(0-t) (red blood cells, po, 2200 mg, HV single oral 2200 mg (Cohort 8), red blood cells (calculated conc.), geometric mean, read-out: AUClast): 626000 µg·h/mL | half-life (red blood cells, po, 2200 mg, HV single oral 2200 mg (Cohort 8), red blood cells (calculated conc.), geometric mean, read-out: t1/2 (converted)): 24.6 days | blood plasma ratio (read-out: mean blood to plasma ratio for AUCinf): 177 to 219 | blood plasma ratio (read-out: mean blood to plasma ratio for Cmax): 20 to 42 | Cmax (whole blood, 50 mg, HV single 50 mg, mean): 8100 ng/mL | AUC(0-t) (whole blood, 50 mg, HV single 50 mg, whole blood, mean, read-out: AUC0-t): 6900 µg·h/mL | half-life (whole blood, 50 mg, HV single 50 mg, whole blood, mean, read-out: t1/2 (converted)): 28.9 days | Cmax (whole blood, 100 mg, HV single 100 mg, mean): 17400 ng/mL | AUC(0-t) (whole blood, 100 mg, HV single 100 mg, whole blood, mean, read-out: AUC0-t): 14400 µg·h/mL | half-life (whole blood, 100 mg, HV single 100 mg, whole blood, mean, read-out: t1/2 (converted)): 29.8 days | Cmax (whole blood, 100 mg, healthy subjects n=6, single 100 mg, blood, geometric mean): 17300 ng/mL | AUC(0-t) (whole blood, 100 mg, healthy subjects n=6, single 100 mg, blood, geometric mean, read-out: AUC0-t): 14300 µg·h/mL | half-life (whole blood, 100 mg, healthy subjects n=6, single 100 mg, blood, geometric mean, read-out: t½ (converted)): 29.1 days | Cmax (whole blood, 200 mg, HV single 200 mg, mean): 35800 ng/mL | AUC(0-t) (whole blood, 200 mg, HV single 200 mg, whole blood, mean, read-out: AUC0-t): 29300 µg·h/mL | half-life (whole blood, 200 mg, HV single 200 mg, whole blood, mean, read-out: t1/2 (converted)): 28.4 days | Cmax (whole blood, 400 mg, HV single 400 mg, mean): 88100 ng/mL | AUC(0-t) (whole blood, 400 mg, HV single 400 mg, whole blood, mean, read-out: AUC0-t): 61900 µg·h/mL | half-life (whole blood, 400 mg, HV single 400 mg, whole blood, mean, read-out: t1/2 (converted)): 25.8 days | Cmax (whole blood, 800 mg, HV single 800 mg, mean): 149000 ng/mL | AUC(0-t) (whole blood, 800 mg, HV single 800 mg, whole blood, mean, blood collected up to day 42, read-out: AUC0-t): 74300 µg·h/mL | Cmax (whole blood, 1400 mg, HV single 1400 mg, mean): 231000 ng/mL | AUC(0-t) (whole blood, 1400 mg, HV single 1400 mg, whole blood, mean, blood collected up to day 42, read-out: AUC0-t): 137000 µg·h/mL
SMILES: O=Cc1c(O)cccc1OC[C@@H]1COCCN1C(=O)c1cccnc1CCO [Compound I, (S)-2-hydroxy-6-((4-(2-(2-hydroxyethyl)nicotinoyl)morpholin-3-yl)methoxy)benzaldehyde]
